Patent US5985968A, “Surface tension reduction with N,N-dialkyl ureas” (Air Products and Chemicals, Inc., priority 1997, dated 1999)
Values after ≈ are worked out from the molar mass of the structure shown. Each block holds one compound with its values, some of them ahead of it.

Experiments:
Assay type in all cases: physicochemical
[1] = Dynamic surface tension of aqueous solutions, maximum-bubble-pressure method; details: for Dynamic Surface Tension: about 23° C.; for Surface tension reduction (in words): summary of dynamic surface tension data
From the text: This invention relates to the use of compounds of the formula [drawing 3] where R1 and R2 are independently C1 to C6 alkyl or cycloalkyl with the total number of carbons in R and R' being 6-12 for the reduction of equilibrium and dynamic surface tension in water-based formulations containing an organic compound, particularly coating, ink, and agricultural formulations. […] The maximum-bubble-pressure method of measuring surface tension is described in Langmuir 1986, 2, 428-432, which is incorporated by reference.
In the following examples dynamic surface tension data were generated for aqueous solutions of the indicated compounds using the maximum-bubble-pressure method at the indicated bubble rates, i.e., bubbles/second (b/s), and room temperature of about 23° C. The equipment used was a Kruss BP 2 bubble pressure tensiometer.
(§1) A saturated solution in distilled water of N,N'-di-n-butylurea was prepared by placing 0.1 g of the urea into 99.9 g of water and shaking the mixture for 1-2 h. […] The solids were removed by filtration, and the dynamic surface tension of the resulting solution was measured using the maximum bubble pressure method at bubble rates from 0.1 to 20 b/s. […] In practical terms, high bubble rates correspond to high printing speeds in lithographic or ink-jet printing, high spray or roller velocities in coating applications, and rapid application rates for agricultural products.
Aqueous solutions of N,N-dibutylurea were prepared and their surface tensions were measured using the procedure described above.

[2] = Solubility in water (saturated solution / solubility limit); details: for dissolution (in words): 0.1 g urea in 99.9 g water, shaken 1-2 h; for solubility thermodynamic: saturated solution in distilled water, solids filtered off, read-out: Concentration of saturated solution
Procedure: (§2) A series of aqueous solutions of various concentrations of n-octylurea [Pfaltz & Bauer] was prepared by placing the urea into water and shaking the mixture for 1-2 h. All of the urea dissolved in the low concentration samples. Undissolved urea in some of the higher concentration samples was remove by filtration. Surface tensions of these solutions were measured using the Wilheimy plate technique. This method provides equilibrium surface tension values. Equilibrium values are always equal to or lower than those obtained under dynamic conditions.
as §1
A saturated solution in distilled water of N,N-di-(2-ethylhexyl)urea was prepared by placing 0.1 g of the urea into 99.9 g of water and shaking the mixture for 1-2 h. […] The solids were removed by filtration, and the surface tension of the resulting solution was measured as described above.
Similarly, a saturated solution in distilled water of N,N-di-n-octylurea was prepared by placing 0.1 g of the urea into 99.9 g of water and shaking the mixture for 1-2 hr. […] The solids were removed by filtration, and the surface tension of the resulting solution was measured as described above.
A saturated solution in distilled water of N,N-di-n-hexylurea was prepared by placing 0.1 g of the urea into 99.9 g of water and shaking the mixture for 1-2 h. […] The solids were removed by filtration, and the surface tension of the resulting solution was measured as described above.

[3] = Foaming properties of 0.1 wt % solution, procedure based upon ASTM D 1173-53
Procedure: The foaming properties of a 0.1 wt % solution of N,N-dibutylurea, N,N-dipentyl-urea, and N,N-dihexylurea were examined using a procedure based upon ASTM D 1173-53. In this test, a 0.1 wt % solution of the surfactant is added from an elevated foam pipette to a foam receiver containing the same solution. The foam height is measured at the completion of the addition ("Initial Foam Height") and the time required for the foam to dissipate is recorded ("Time to 0 Foam"). This test provides a comparison between the foaming characteristics of various surfactant solutions. In general, in coatings, inks, and agricultural formulations, foam is undesirable because is complicates handling and can lead to coating and print defects, and to inefficient application of agricultural materials.

[4] = Equilibrium surface tension of aqueous solutions, Wilhelmy plate technique
Procedure: as §2

Dynamic Surface Tension ([1]; saturated (<0.1 wt %), 0.1 b/s): 52.9 dyne/cm
Dynamic Surface Tension ([1]; saturated (<0.1 wt %), 1 b/s): 69.8 dyne/cm
Dynamic Surface Tension ([1]; saturated (<0.1 wt %), 6 b/s): 71.1 dyne/cm
Dynamic Surface Tension ([1]; saturated (<0.1 wt %), 15 b/s): 70.3 dyne/cm
Dynamic Surface Tension ([1]; saturated (<0.1 wt %), 20 b/s): 69.4 dyne/cm
dissolution (in words) [2]: Most of the urea remained undissolved
solubility thermodynamic [2]: < 1000 µg/mL
Compound: CCCCCCCCN(CCCCCCCC)C(N)=O [N,N-Di-n-octylurea, N,N-di-n-octylurea, reference compound]

Dynamic Surface Tension ([1]; saturated (<0.1 wt %), 0.1 b/s): 59.0 dyne/cm
Dynamic Surface Tension ([1]; saturated (<0.1 wt %), 1 b/s): 59.6 dyne/cm
Dynamic Surface Tension ([1]; saturated (<0.1 wt %), 6 b/s): 60.2 dyne/cm
Dynamic Surface Tension ([1]; saturated (<0.1 wt %), 15 b/s): 60.6 dyne/cm
Dynamic Surface Tension ([1]; saturated (<0.1 wt %), 20 b/s): 60.9 dyne/cm
solubility thermodynamic [2]: < 1000 µg/mL
Compound: CCCCNC(=O)NCCCC [N,N'-Di-n-butylurea, N,N'-di-n-butylurea, reference compound]
dissolution (in words) [2]: Most of the N,N'-di-n-butylurea remained undissolved

Dynamic Surface Tension ([1]; 0.3 wt %, 0.1 b/s): 42.9 dyne/cm
Dynamic Surface Tension ([1]; 0.3 wt %, 1 b/s): 43.1 dyne/cm
Dynamic Surface Tension ([1]; 0.3 wt %, 6 b/s): 43.4 dyne/cm
Dynamic Surface Tension ([1]; 0.3 wt %, 15 b/s): 43.4 dyne/cm
Dynamic Surface Tension ([1]; 0.3 wt %, 20 b/s): 43.6 dyne/cm
Dynamic Surface Tension ([1]; 1.0 wt %, 0.1 b/s): 32.7 dyne/cm
Dynamic Surface Tension ([1]; 1.0 wt %, 1 b/s): 32.9 dyne/cm
Dynamic Surface Tension ([1]; 1.0 wt %, 6 b/s): 33.2 dyne/cm
Dynamic Surface Tension ([1]; 1.0 wt %, 15 b/s): 33.8 dyne/cm
Dynamic Surface Tension ([1]; 1.0 wt %, 20 b/s): 34.1 dyne/cm
Dynamic Surface Tension ([1]; 1.5 wt %, 0.1 b/s): 28.2 dyne/cm
Dynamic Surface Tension ([1]; 1.5 wt %, 1 b/s): 28.3 dyne/cm
Dynamic Surface Tension ([1]; 1.5 wt %, 6 b/s): 28.5 dyne/cm
Dynamic Surface Tension ([1]; 1.5 wt %, 15 b/s): 29.1 dyne/cm
Dynamic Surface Tension ([1]; 1.5 wt %, 20 b/s): 29.5 dyne/cm
Dynamic Surface Tension ([1]; 1.5 wt %, 20 b/s, listed as N,N-dibutylurea): below 30 dyne/cm
Initial Foam Height [3]: 3.0 cm
Time to 0 Foam [3]: 5 s
Compound: CCCCN(CCCC)C(N)=O [N,N-Dibutylurea, N,N-dibutylurea]
Surface tension reduction (in words) [1]: highly effective at reducing the surface tension of water

Dynamic Surface Tension ([1]; 1.0 wt %, 0.1 b/s): 51.9 dyne/cm
Dynamic Surface Tension ([1]; 1.0 wt %, 1 b/s): 52.4 dyne/cm
Dynamic Surface Tension ([1]; 1.0 wt %, 6 b/s): 52.9 dyne/cm
Dynamic Surface Tension ([1]; 1.0 wt %, 15 b/s): 53.2 dyne/cm
Dynamic Surface Tension ([1]; 1.0 wt %, 20 b/s): 53.2 dyne/cm
Dynamic Surface Tension ([1]; 2.5 wt %, 0.1 b/s): 44.1 dyne/cm
Dynamic Surface Tension ([1]; 2.5 wt %, 1 b/s): 44.6 dyne/cm
Dynamic Surface Tension ([1]; 2.5 wt %, 6 b/s): 45.1 dyne/cm
Dynamic Surface Tension ([1]; 2.5 wt %, 15 b/s): 45.6 dyne/cm
Dynamic Surface Tension ([1]; 2.5 wt %, 20 b/s): 45.8 dyne/cm
Compound: CN(C(N)=O)C1CCCCC1 [N-cyclohexyl-N-methylurea]
Surface tension reduction (in words) [1]: reasonably effective at reducing the surface tension of water

Dynamic Surface Tension ([1]; saturated (<0.1 wt %), 0.1 b/s): 34.7 dyne/cm
Dynamic Surface Tension ([1]; saturated (<0.1 wt %), 1 b/s): 42.8 dyne/cm
Dynamic Surface Tension ([1]; saturated (<0.1 wt %), 6 b/s): 56.8 dyne/cm
Dynamic Surface Tension ([1]; saturated (<0.1 wt %), 15 b/s): 63.7 dyne/cm
Dynamic Surface Tension ([1]; saturated (<0.1 wt %), 20 b/s): 62.4 dyne/cm
solubility thermodynamic [2]: < 1000 µg/mL
Initial Foam Height [3]: 1.0 cm
Time to 0 Foam [3]: 2 s
Compound: CCCCCCN(CCCCCC)C(N)=O [N,N-Di-n-hexylurea, N,N-di-n-hexylurea]
dissolution (in words) [2]: Most of the N,N-di-n-hexylurea remained undissolved

Dynamic Surface Tension ([1]; 0.5 wt %, 0.1 b/s): 53.8 dyne/cm
Dynamic Surface Tension ([1]; 0.5 wt %, 1 b/s): 54.0 dyne/cm
Dynamic Surface Tension ([1]; 0.5 wt %, 6 b/s): 54.3 dyne/cm
Dynamic Surface Tension ([1]; 0.5 wt %, 15 b/s): 53.8 dyne/cm
Dynamic Surface Tension ([1]; 0.5 wt %, 20 b/s): 53.7 dyne/cm
Dynamic Surface Tension ([1]; 2.0 wt %, 0.1 b/s): 43.4 dyne/cm
Dynamic Surface Tension ([1]; 2.0 wt %, 1 b/s): 43.6 dyne/cm
Dynamic Surface Tension ([1]; 2.0 wt %, 6 b/s): 43.9 dyne/cm
Dynamic Surface Tension ([1]; 2.0 wt %, 15 b/s): 44.4 dyne/cm
Dynamic Surface Tension ([1]; 2.0 wt %, 20 b/s): 44.5 dyne/cm
Dynamic Surface Tension ([1]; 4.0 wt %, 0.1 b/s): 39.0 dyne/cm
Dynamic Surface Tension ([1]; 4.0 wt %, 1 b/s): 39.1 dyne/cm
Dynamic Surface Tension ([1]; 4.0 wt %, 6 b/s): 39.3 dyne/cm
Dynamic Surface Tension ([1]; 4.0 wt %, 15 b/s): 39.5 dyne/cm
Dynamic Surface Tension ([1]; 4.0 wt %, 20 b/s): 39.6 dyne/cm
Compound: CCCN(CCC)C(N)=O [N,N-Di-n-propylurea, N,N-di-n-propylurea]
Surface tension reduction (in words) [1]: reasonably effective at reducing the surface tension of water

solubility ([2]; in water): 100 µg/mL (≈ 0.58 mM)
Equilibrium surface tension ([4]; 0.0001 wt % in water): 72.2 dyne/cm
Equilibrium surface tension ([4]; 0.0005 wt % in water): 72.1 dyne/cm
Equilibrium surface tension ([4]; 0.001 wt % in water): 72.0 dyne/cm
Equilibrium surface tension ([4]; 0.003 wt % in water): 68.9 dyne/cm
Equilibrium surface tension ([4]; 0.005 wt % in water): 62.4 dyne/cm
Equilibrium surface tension ([4]; 0.007 wt % in water): 60.0 dyne/cm
Equilibrium surface tension ([4]; 0.009 wt % in water): 57.0 dyne/cm
Equilibrium surface tension ([4]; 0.015 wt % in water): 57.1 dyne/cm
Equilibrium surface tension ([4]; 0.03 wt % in water): 55.5 dyne/cm
Equilibrium surface tension ([4]; 0.06 wt % in water): 57.1 dyne/cm
lowest surface tension which can be obtained for an aqueous solution ([4]; limiting value from Table 1 data): about 56 dyne/cm
Compound: CCCCCCCCNC(N)=O [N-Octylurea, n-octylurea]

Dynamic Surface Tension ([1]; 0.1 wt %, 0.1 b/s): 36.3 dyne/cm
Dynamic Surface Tension ([1]; 0.1 wt %, 1 b/s): 37.1 dyne/cm
Dynamic Surface Tension ([1]; 0.1 wt %, 6 b/s): 38.7 dyne/cm
Dynamic Surface Tension ([1]; 0.1 wt %, 15 b/s): 40.7 dyne/cm
Dynamic Surface Tension ([1]; 0.1 wt %, 20 b/s): 41.3 dyne/cm
Dynamic Surface Tension ([1]; 0.2 wt %, 0.1 b/s): 32.8 dyne/cm
Dynamic Surface Tension ([1]; 0.2 wt %, 1 b/s): 33.4 dyne/cm
Dynamic Surface Tension ([1]; 0.2 wt %, 6 b/s): 34.6 dyne/cm
Dynamic Surface Tension ([1]; 0.2 wt %, 15 b/s): 36.2 dyne/cm
Dynamic Surface Tension ([1]; 0.2 wt %, 20 b/s): 36.3 dyne/cm
Dynamic Surface Tension ([1]; 0.3 wt %, 0.1 b/s): 30.9 dyne/cm
Dynamic Surface Tension ([1]; 0.3 wt %, 1 b/s): 31.5 dyne/cm
Dynamic Surface Tension ([1]; 0.3 wt %, 6 b/s): 32.4 dyne/cm
Dynamic Surface Tension ([1]; 0.3 wt %, 15 b/s): 32.9 dyne/cm
Dynamic Surface Tension ([1]; 0.3 wt %, 20 b/s): 33.1 dyne/cm
solubility limit ([2]; in water): 0.3 wt %
Initial Foam Height [3]: 1.5 cm
Time to 0 Foam [3]: 3 s
Compound: N,N-dipentylurea

Dynamic Surface Tension ([1]; saturated (<0.1 wt %), 0.1 b/s): 60.1 dyne/cm
Dynamic Surface Tension ([1]; saturated (<0.1 wt %), 1 b/s): 69.2 dyne/cm
Dynamic Surface Tension ([1]; saturated (<0.1 wt %), 6 b/s): 69.6 dyne/cm
Dynamic Surface Tension ([1]; saturated (<0.1 wt %), 15 b/s): 69.3 dyne/cm
Dynamic Surface Tension ([1]; saturated (<0.1 wt %), 20 b/s): 68.1 dyne/cm
dissolution (in words) [2]: Most of the urea remained undissolved
solubility thermodynamic [2]: < 1000 µg/mL
Compound: CCCCC(CC)CN(CC(CC)CCCC)C(N)=O (stereo not shown) [N,N-Di-(2-ethylhexyl)urea, N,N-di-(2-ethylhexyl)urea, reference compound]
